ChEMBL document CHEMBL5537193, “Multitargeting HDAC Inhibitors Containing a RAS/RAF Protein Interfering Unit” (J Med Chem, 2024)
pIC50: −log10 of the molar value. The source made the active and inactive calls. No cut-off for these calls is given here.

What was measured:
[1] = target: Histone deacetylase 9 (Homo sapiens, UniProt Q9UKV0); assay: Inhibition of HDAC9 (unknown origin)
[2] = tested on: PANC-1; assay: Cell cycle arrest in human PANC-1 cells assessed as accumulation of cells at G2-M phase at 2 uM incubated for 24 hrs by PI/RNase staining based flow cytometric analysis; type: functional
[3] = tested on: HT-29; assay: Cell cycle arrest in human HT-29 cells assessed as accumulation of cells at G2-M phase at 2 uM incubated for 24 hrs by PI/RNase staining based flow cytometric analysis; type: functional
[4] = tested on: PANC-1; assay: Induction of apoptosis in human PANC-1 cells assessed as apoptotic cells at 2 uM incubated for 24 hrs by flow cytometric analysis relative to control; type: functional
[5] = tested on: HT-29; assay: Induction of apoptosis in human HT-29 cells assessed as apoptotic ratio at 2 uM incubated for 24 hrs by flow cytometric analysis; type: functional
[6] = tested on: PANC-1; assay: Induction of apoptosis in human PANC-1 cells assessed as increase in Bax expression at 2 uM incubated for 24 hrs by Western blot analysis; type: functional, cell-based
[7] = tested on: PANC-1; assay: Induction of apoptosis in human PANC-1 cells assessed as increase in Cytochrome C expression level at 2 uM incubated for 24 hrs by Western blot analysis; type: functional, cell-based
[8] = Metabolic stability in human liver microsomes assessed as half-life at 1 uM measured upto 40 mins by LC-MS/MS analysis; type: ADME, Microsome
[9] = Metabolic stability in rat liver microsomes assessed as half-life at 1 uM measured upto 40 mins by LC-MS/MS analysis; type: ADME, Microsome
[10] = Metabolic stability in mouse liver microsomes assessed as half-life at 1 uM measured upto 40 mins by LC-MS/MS analysis; type: ADME, Microsome
[11] = Half-life in Sprague-Dawley rat at 15 mg/kg, ip measured after 24 hrs by LC-MS/MS analysis; type: ADME, organism-based; settings: in vivo
[12] = Cmax in Sprague-Dawley rat at 15 mg/kg, ip measured after 24 hrs by LC-MS/MS analysis; type: ADME, organism-based; settings: in vivo
[13] = AUC (0 to t) in Sprague-Dawley rat at 15 mg/kg, ip measured after 24 hrs by LC-MS/MS analysis; type: ADME, organism-based; settings: in vivo
[14] = Elimination rate constant in Sprague-Dawley rat at 15 mg/kg, ip measured after 24 hrs by LC-MS/MS analysis; type: ADME, organism-based; settings: in vivo
[15] = MRT (0 to infinity) in Sprague-Dawley rat at 15 mg/kg, ip measured after 24 hrs by LC-MS/MS analysis; type: ADME, organism-based; settings: in vivo
[16] = tested on: HT-29; assay: Antitumor activity against human HT-29 xenografted in BALB/c nude mouse assessed as tumor growth inhibition at 7.5 mg/kg, ip administered once every 2 days for 12 times for 24 days relative to control; type: functional; settings: HT-29, 576 h, time 24 day, read-out: TGI
[17] = Toxicity in BALB/c nude mouse xenografted with human HT-29 cells assessed as change in main organs at 7.5 to 15 mg/kg, ip administered once every 2 days for 12 times for 24 days by H&E staining based analysis; type: organism-based; settings: in vivo, 576 h, dose 7.5-15 mg/kg, time 24 day
[18] = tested on: PANC-1; assay: Effect on RAS protein expression in human PANC-1 cells at 2 uM incubated for 24 hrs by Western blot analysis; type: functional, cell-based
[19] = tested on: PANC-1; assay: Effect on ERK1/2 protein expression in human PANC-1 cells at 2 uM incubated for 24 hrs by Western blot analysis; type: functional, cell-based
[20] = tested on: HT-29; assay: Effect on RAS protein expression in human HT-29 cells at 2 uM incubated for 24 hrs by Western blot analysis; type: functional, cell-based
[21] = tested on: PANC-1; assay: Inhibition of MAPK signaling pathway in human PANC-1 cells assessed as inhibition of C-RAF phosphorylation at Ser338 residue at 2 uM incubated for 24 hrs by Western blot analysis; type: cell-based
[22] = tested on: HT-29; assay: Inhibition of MAPK signaling pathway in human HT-29 cells assessed as inhibition of ERK1/2 phosphorylation at 2 uM incubated for 24 hrs by Western blot analysis; type: cell-based
[23] = tested on: PANC-1; assay: Effect on Histone H3 expression in human PANC-1 cells at 2 uM incubated for 24 hrs by Western blot analysis; type: functional, cell-based
[24] = tested on: PANC-1; assay: Effect on alpha-tubulin expression in human PANC-1 cells at 2 uM incubated for 24 hrs by Western blot analysis; type: functional, cell-based
[25] = tested on: HT-29; assay: Effect on Histone H3 expression in human HT-29 cells at 2 uM incubated for 24 hrs by Western blot analysis; type: functional, cell-based
[26] = tested on: Mus musculus; assay: In vivo inhibition of HDAC3 in BALB/c mouse xenografted with human HT-29 cells assessed as induction of histone H3 acetylation administered intraperitoneally once every 2 days for 12 times and measured after 24 days by Western blot analysis; type: functional; settings: dose 7.5-15 mg/kg, route ip, time 24.0 day
[27] = tested on: Mus musculus; assay: In vivo inhibition of MAPK signaling pathway in BALB/c mouse xenografted with human HT-29 cells assessed as inhibition of c-RAF phosphorylation at Ser338 residue administered intraperitoneally once every 2 days for 12 times and measured after 24 days by Western blot analysis; type: functional; settings: dose 7.5-15 mg/kg, route ip, time 24.0 day
[28] = tested on: HT-29; assay: Effect on RAS expression in tumor of BALB/c mouse xenografted with human HT-29 cells at 7.5 to 15 mg/kg, ip administered once every 2 days for 12 times and measured after 24 days by Western blot analysis; type: functional, organism-based; settings: Neoplasm, dose 7.5-15 mg/kg, time 24.0 day
[29] = tested on: HT-29; assay: Effect on MEK expression in tumor of BALB/c mouse xenografted with human HT-29 cells at 7.5 to 15 mg/kg, ip administered once every 2 days for 12 times and measured after 24 days by Western blot analysis; type: functional, organism-based; settings: Neoplasm, dose 7.5-15 mg/kg, time 24.0 day
[30] = tested on: HT-29; assay: Effect on alpha-tubulin expression in tumor of BALB/c mouse xenografted with human HT-29 cells at 7.5 to 15 mg/kg, ip administered once every 2 days for 12 times and measured after 24 days by Western blot analysis; type: functional, organism-based; settings: Neoplasm, dose 7.5-15 mg/kg, time 24.0 day
[31] = tested on: HT-29; assay: Antitumor activity against human HT-29 cells xenografted in BALB/c nude mouse assessed as tumor growth inhibition at 7.5 mg/kg, ip administered once a day for 24 days relative to control; type: functional; settings: HT-29, 576 h, time 24 day, read-out: TGI
[32] = Toxicity in BALB/c nude mouse xenografted with human HT-29 cells assessed as change in body weight at 7.5 to 15 mg/kg, ip administered once daily for 24 days; type: organism-based; settings: in vivo, 576 h, dose 7.5-15 mg/kg, time 24 day
[33] = Toxicity in BALB/c nude mouse xenografted with human HT-29 cells assessed as change in spleen histopathology at 10 to 15 mg/kg, ip administered once daily for 24 days by H&E staining based analysis; type: organism-based; settings: in vivo, 576 h, dose 10-15 mg/kg, time 24 day
[34] = tested on: A549; assay: cells; settings: Homo sapiens, A549, 72 h
Description: Cytotoxicity against human A549 cells assessed as inhibition of cell growth incubated for 72 hrs by MTT assay

[35] = tested on: SGC-7901; assay: cells; settings: Homo sapiens, SGC-7901, 72 h
Description: Cytotoxicity against human SGC-7901 cells assessed as inhibition of cell growth incubated for 72 hrs by MTT assay

[36] = tested on: HepG2; assay: cells; settings: Homo sapiens, HepG2, 72 h
Description: Cytotoxicity against human HepG2 cells assessed as inhibition of cell growth incubated for 72 hrs by MTT assay

[37] = tested on: PANC-1; assay: cells; settings: Homo sapiens, PANC-1, 72 h
Description: Cytotoxicity against human PANC-1 cells assessed as inhibition of cell growth incubated for 72 hrs by MTT assay

[38] = tested on: HT-29; assay: cells; settings: Homo sapiens, HT-29, 72 h
Description: Cytotoxicity against human HT-29 cells assessed as inhibition of cell growth incubated for 72 hrs by MTT assay

[39] = tested on: MV4-11; assay: cells; settings: Homo sapiens, MV4-11, 72 h
Description: Cytotoxicity against human MV4-11 cells assessed as inhibition of cell growth incubated for 72 hrs by MTT assay

Histone deacetylase 9, sequence (Q9UKV0 whole entry): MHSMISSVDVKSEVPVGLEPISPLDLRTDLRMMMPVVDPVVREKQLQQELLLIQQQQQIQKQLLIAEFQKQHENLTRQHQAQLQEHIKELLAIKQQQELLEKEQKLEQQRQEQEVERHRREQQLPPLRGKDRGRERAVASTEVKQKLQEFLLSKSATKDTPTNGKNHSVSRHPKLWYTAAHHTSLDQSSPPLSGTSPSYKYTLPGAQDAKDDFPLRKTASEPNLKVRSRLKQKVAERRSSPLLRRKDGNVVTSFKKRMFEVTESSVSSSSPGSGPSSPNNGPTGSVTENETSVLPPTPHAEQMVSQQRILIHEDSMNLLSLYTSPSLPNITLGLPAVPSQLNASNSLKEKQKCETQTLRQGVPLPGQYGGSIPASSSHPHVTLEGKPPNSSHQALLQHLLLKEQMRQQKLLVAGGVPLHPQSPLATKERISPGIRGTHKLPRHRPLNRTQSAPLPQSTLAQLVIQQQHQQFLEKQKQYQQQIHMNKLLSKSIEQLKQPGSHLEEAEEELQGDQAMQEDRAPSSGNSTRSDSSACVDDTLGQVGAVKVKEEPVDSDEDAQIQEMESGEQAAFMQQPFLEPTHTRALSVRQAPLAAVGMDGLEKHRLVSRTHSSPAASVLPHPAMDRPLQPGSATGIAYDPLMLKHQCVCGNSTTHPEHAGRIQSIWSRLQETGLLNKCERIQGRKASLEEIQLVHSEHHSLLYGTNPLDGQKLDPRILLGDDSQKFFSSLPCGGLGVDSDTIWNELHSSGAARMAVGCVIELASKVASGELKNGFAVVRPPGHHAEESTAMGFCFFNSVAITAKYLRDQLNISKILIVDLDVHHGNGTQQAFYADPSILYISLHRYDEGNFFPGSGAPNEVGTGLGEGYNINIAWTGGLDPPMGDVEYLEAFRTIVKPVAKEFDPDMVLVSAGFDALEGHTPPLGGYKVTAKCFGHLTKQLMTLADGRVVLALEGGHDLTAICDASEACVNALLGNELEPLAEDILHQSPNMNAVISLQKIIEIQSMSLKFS

COc1cc(OC)c(/C=C/S(=O)(=O)Cc2ccc(OC)c(NCC(=O)NO)c2)c(OC)c1
pIC50 [1]: 7.08 | Activity [2]: Active | Activity [3]: Active | Activity [4]: 57.4% | Activity [5]: 51.5% | Activity [6]: Active | Activity [7]: Active | half-life at 1 µM [8]: 124 min | half-life at 1 µM [9]: 5.52 min | half-life at 1 µM [10]: 28.6 min | half-life [11]: 46.3 min | Cmax [12]: 2800 ng/mL | AUC(0-t) at 24 h [13]: 5190 ng·h/mL | k el at 24 h [14]: 0.000252 s⁻¹ | MRT inf [15]: 80.4 min | inhibition in vivo at 7.5 mg/kg [16]: 64.3% | Activity [17]: Non-Toxic | Activity [18]: inactive | Activity [19]: inactive | Activity [20]: inactive | inhibition [21]: Active | inhibition [22]: Active | Activity [23]: inactive | Activity [24]: inactive | Activity [25]: inactive | inhibition [26]: Dose-Dependent Effect | inhibition [27]: Dose-Dependent Effect | Activity [28]: inactive | Activity [29]: inactive | Activity [30]: inactive | inhibition in vivo at 7.5 mg/kg [31]: 70.1% | Activity [32]: Non-Toxic | Activity [33]: Non-Toxic | pIC50 [34]: 7.05 | pIC50 [35]: 6.77 | pIC50 [36]: 6.00 | pIC50 [37]: 7.30 | pIC50 [38]: 7.40 | pIC50 [39]: 7.10
